Data set [1] relates to HBV replication in HepAD38 cells. Briefly: Anti-HBV replication assay in HepAD38 cells (QPCR of extracellular HBV DNA). It is filed as cell-based, HBV (genotype D, serotype ayw). Conditions: Hepatitis B virus, 168 h, 7 days incubation, extracellular HBV DNA by QPCR, read-out: Anti-HBV EC50. The gist of the method:
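Stably transfected HepG2-derived HepAD38 cells express HBV (genotype D, ayw) once tetracycline is withdrawn. Compounds act for 7 days, after which secreted HBV DNA is quantified by QPCR relative to DMSO-treated wells.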

The nature of data set [2]: In vitro cytotoxicity assay (MTT cell viability) in HepG2 cells. It counts as cell-based, human. To be noted: human. The gist of the method: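 HepG2 cells incubated 7 days at 37 °C, 5% CO2 with compounds from 30 μM to 1.0 nM (8 half-log dilutions). Viability read as MTT formazan absorbance at 492 nm, normalised to vehicle controls; CC50 from 4-parameter non-linear regression.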

`Cc1cc(NC(=O)c2c(Cl)c(C(=O)C(=O)N[C@H]3COC[C@@H]3O)n3c2CCCC3)ccc1F` [Example 505, 2-chloro-N-(4-fluoro-3-methylphenyl)-3-(2-(((3S,4R)-4-hydroxytetrahydrofuran-3-yl)amino)-2-oxoacetyl)-5,6,7,8-tetrahydroindolizine-1-carboxamide]: in data set [1], the half-maximal effective concentration (EC50) lay in the range of 0.5 to 1 µM. Moreover, the CC50 at 7 days in data set [2] was over 30 µM.

As to `Cc1csc(NC(=O)C(=O)c2c(C)c(C(=O)Nc3cc(F)c(F)c(F)c3)c(C)n2C)n1` [Example 323, 1,2,4-trimethyl-5-(2-((4-methylthiazol-2-yl)amino)-2-oxoacetyl)-N-(3,4,5-trifluorophenyl)-1H-pyrrole-3-carboxamide], the EC50 in data set [1] was under 0.05 µM. Besides, the CC50 at 7 days in data set [2] lay in the range of 5 to 30 µM.

Regarding `Cc1cc(NC(=O)c2c(C)c(C(=O)C(=O)NC(C)(C)CO)n(CCF)c2C)ccc1F` [Example 116, N-(4-fluoro-3-methylphenyl)-1-(2-fluoroethyl)-5-(2-((1-hydroxy-2-methylpropan-2-yl)amino)-2-oxoacetyl)-2,4-dimethyl-1H-pyrrole-3-carboxamide], in data set [1], the EC50 is under 0.05 µM. This molecule returned a CC50 at 7 days in data set [2] of over 30 µM.

As to `Cc1cc(NC(=O)c2c(C)c(C(=O)C(=O)N3[C@@H]4CC[C@H]3C[C@H](O)C4)n(C)c2C)ccc1F` [Example 48, N-(4-fluoro-3-methylphenyl)-5-(2-((1R,3s,5S)-3-hydroxy-8-azabicyclo[3.2.1]octan-8-yl)-2-oxoacetyl)-1,2,4-trimethyl-1H-pyrrole-3-carboxamide], the EC50 in data set [1] was in the range of 0.05 to 0.499 µM. For the same molecule, the CC50 at 7 days in data set [2] is over 30 µM.

Take `Cc1noc([C@H](C)NC(=O)C(=O)c2c(Cl)c(C(=O)Nc3ccc(F)c(F)c3)c3n2CCC3)n1` [Example 568, (S)-6-chloro-N-(3,4-difluorophenyl)-5-(2-((1-(3-methyl-1,2,4-oxadiazol-5-yl)ethyl)amino)-2-oxoacetyl)-2,3-dihydro-1H-pyrrolizine-7-carboxamide]: the EC50 in data set [1] was under 0.05 µM. For the same molecule, the CC50 at 7 days in data set [2] fell in the range of 5 to 30 µM.

Take `Cc1cc(NC(=O)c2c(C)c(C(=O)C(=O)NC(C)(C)C)n(C)c2Cl)ccc1F` [Example 386, 5-(2-(tert-butylamino)-2-oxoacetyl)-2-chloro-N-(4-fluoro-3-methylphenyl)-1,4-dimethyl-1H-pyrrole-3-carboxamide]: in data set [1], the EC50 is over 1 µM. The same molecule showed a CC50 at 7 days in data set [2] of 5 to 30 µM.

Consider `Cc1cc(NC(=O)c2c(C)c(C(=O)C(=O)N[C@@H](C(N)=O)C3CCCCC3)n(C)c2C)ccc1F` [Example 102, (R)-5-(2-((2-amino-1-cyclohexyl-2-oxoethyl)amino)-2-oxoacetyl)-N-(4-fluoro-3-methylphenyl)-1,2,4-trimethyl-1H-pyrrole-3-carboxamide], for which the EC50 in data set [1] was under 0.05 µM. The CC50 at 7 days in data set [2] fell in the range of 0.5 to 4.99 µM.

`Cc1c(C(=O)Nc2cc(F)c(F)c(F)c2)c(Cl)c(C(=O)C(=O)NC(C)(C)C)n1C` [Example 369, 5-(2-(tert-butylamino)-2-oxoacetyl)-4-chloro-1,2-dimethyl-N-(3,4,5-trifluorophenyl)-1H-pyrrole-3-carboxamide]: the EC50 in data set [1] is under 0.05 µM. The molecule further came in with a CC50 at 7 days in data set [2] of over 30 µM.

Consider `Cc1c(C(=O)Nc2ccc(F)nc2)c(C)n(C)c1C(=O)C(=O)NC1C2CC3CC(C2)CC1C3` (stereo not drawn) [Example 91, 5-(2-(((1r,3r)-adamantan-2-yl)amino)-2-oxoacetyl)-N-(6-fluoropyridin-3-yl)-1,2,4-trimethyl-1H-pyrrole-3-carboxamide], for which the EC50 in data set [1] was under 0.05 µM. Besides, the cytotoxic concentration (CC50) at 7 days in data set [2] was over 30 µM.

On to `Cc1noc([C@H](NC(=O)C(=O)c2c(C)c(C(=O)Nc3ccc(F)c(C)c3)c(C)n2C)C(C)C)n1` [Example 144, (R)-N-(4-fluoro-3-methylphenyl)-1,2,4-trimethyl-5-(2-((2-methyl-1-(3-methyl-1,2,4-oxadiazol-5-yl)propyl)amino)-2-oxoacetyl)-1H-pyrrole-3-carboxamide], for which the EC50 in data set [1] is under 0.05 µM. Further, the CC50 at 7 days in data set [2] is over 30 µM.

As to `Cc1cc(NC(=O)c2c(C)c(C(=O)C(=O)NCC(C)(C)N3CCOCC3)n(C)c2C)ccc1F` [Example 352, N-(4-fluoro-3-methylphenyl)-1,2,4-trimethyl-5-(2-((2-methyl-2-morpholinopropyl)amino)-2-oxoacetyl)-1H-pyrrole-3-carboxamide], in data set [1], the EC50 is 0.05 to 0.499 µM. In addition, the CC50 at 7 days in data set [2] is over 30 µM.

For `Cc1cc(NC(=O)c2c(C)c(C(=O)C(=O)N[C@@H](C)CCO)n(C)c2C)ccc1F` [Example 142, (S)-N-(4-fluoro-3-methylphenyl)-5-(2-((4-hydroxybutan-2-yl)amino)-2-oxoacetyl)-1,2,4-trimethyl-1H-pyrrole-3-carboxamide], in data set [1], the EC50 is under 0.05 µM. This molecule also had a CC50 at 7 days in data set [2] of over 30 µM.

Turning to `CNC(=O)[C@@H](NC(=O)C(=O)c1c(C)c(C(=O)Nc2ccc(F)c(C)c2)c(C)n1C)C1CCC1` [Example 124, (S)-5-(2-((1-cyclobutyl-2-(methylamino)-2-oxoethyl)amino)-2-oxoacetyl)-N-(4-fluoro-3-methylphenyl)-1,2,4-trimethyl-1H-pyrrole-3-carboxamide], in data set [1], the EC50 was under 0.05 µM. Also, the CC50 at 7 days in data set [2] fell in the range of 5 to 30 µM.

Take `COC(=O)[C@H](NC(=O)C(=O)c1c(C)c(C(=O)Nc2ccc(F)c(C)c2)c(C)n1C)C(C)(C)C` [Example 24, methyl (R)-2-(2-(4-((4-fluoro-3-methylphenyl)carbamoyl)-1,3,5-trimethyl-1H-pyrrol-2-yl)-2-oxoacetamido)-3,3-dimethylbutanoate]: the EC50 in data set [1] was under 0.05 µM. The molecule also displayed a CC50 at 7 days in data set [2] of over 30 µM.

`Cc1cc(NC(=O)c2c(C)c(C(=O)C(=O)N[C@@H]3c4ccccc4C[C@H]3O)n(C)c2C)ccc1F` [Example 261, N-(4-fluoro-3-methylphenyl)-5-(2-(((1R,2R)-2-hydroxy-2,3-dihydro-1H-inden-1-yl)amino)-2-oxoacetyl)-1,2,4-trimethyl-1H-pyrrole-3-carboxamide]: the EC50 in data set [1] is under 0.05 µM. The CC50 at 7 days in data set [2] was in the range of 0.5 to 4.99 µM.

For the molecule `Cc1cc(NC(=O)c2c(C)c(C(=O)C(=O)NCC(C)(C)CO)n3c2CCCC3)cnc1F` [Example 476, N-(6-fluoro-5-methylpyridin-3-yl)-3-(2-((3-hydroxy-2,2-dimethylpropyl)amino)-2-oxoacetyl)-2-methyl-5,6,7,8-tetrahydroindolizine-1-carboxamide], in data set [1], the EC50 was over 1 µM. Further, the CC50 at 7 days in data set [2] was in the range of 5 to 30 µM.

`Cc1cc(NC(=O)c2cc(C(=O)C(=O)N[C@@H](C)C(F)(F)F)n3c2CCCC3)ccc1F` [Example 407, (S)-N-(4-fluoro-3-methylphenyl)-3-(2-oxo-2-((1,1,1-trifluoropropan-2-yl)amino)acetyl)-5,6,7,78-tetrahydroindolizine-1-carboxamide]: in data set [1], the EC50 is 0.05 to 0.499 µM. For the same molecule, in data set [2], the CC50 at 7 days was over 30 µM.

As for `Cc1c(C(=O)Nc2ccc(F)c(F)c2)c(C)n(C)c1C(=O)C(=O)NC1(C(N)=O)CCCC1` [Example 147, 5-(2-((1-carbamoylcyclopentyl)amino)-2-oxoacetyl)-N-(3,4-difluorophenyl)-1,2,4-trimethyl-1H-pyrrole-3-carboxamide], the EC50 in data set [1] was under 0.05 µM. In data set [2], this molecule came in with a CC50 at 7 days of over 30 µM.

`Cc1cc(NC(=O)c2c(C)c(C(=O)C(=O)NC(C)(C)CN3CCOCC3)n(C)c2C)cnc1F` [Example 351, N-(6-fluoro-5-methylpyridin-3-yl)-1,2,4-trimethyl-5-(2-((2-methyl-1-morpholiinopropan-2-yl)amino)-2-oxoacetyl)-1H-pyrrole-3-carboxamide]: the EC50 in data set [1] fell in the range of 0.05 to 0.499 µM. This molecule registered a CC50 at 7 days in data set [2] of over 30 µM.

In the case of `Cc1cc(NC(=O)c2c(Cl)c(C(=O)C(=O)NCc3cnc(N)s3)n3c2CCC3)ccc1F` [Example 552, 5-(2-(((2-aminothiazol-5-yl)methyl)amino)-2-oxoacetyl)-6-chloro-N-(4-fluoro-3-methylphenyl)-2,3-dihydro-1H-pyrrolizine-7-carboxamide], the EC50 in data set [1] is under 0.05 µM. In data set [2], this molecule had a CC50 at 7 days of 5 to 30 µM.

As to `Cc1cc(NC(=O)c2c(Cl)c(C(=O)C(=O)NC(C)(C)C)n(C)c2C)cnc1F` [Example 371, 5-(2-(tert-butylamino)-2-oxoacetyl)-4-chloro-N-(6-fluoro-5-methylpyridin-3-yl)-1,2-dimethyl-1H-pyrrole-3-carboxamide], the EC50 in data set [1] was 0.05 to 0.499 µM. Moreover, the CC50 at 7 days in data set [2] was over 30 µM.

As for `O=C(NC1(CO)CCC1)C(=O)c1c(Cl)c(C(=O)Nc2ccc(F)c(F)c2)c2n1CCCC2` [Example 499, 2-chloro-N-(3,4-difluorophenyl)-3-(2-((1-(hydroxymethyl)cyclobutyl)amino)-2-oxoacetyl)-5,6,7,8-tetrahydroindolizine-1-carboxamide], the EC50 in data set [1] is under 0.05 µM. Also, the CC50 at 7 days in data set [2] is over 30 µM.

Turning to `Cc1c(C(=O)Nc2ccc(F)c(F)c2)c2n(c1C(=O)C(=O)N[C@H]1CCC[C@H]1O)CCCC2` [Example 458, N-(3,4-difluorophenyl)-3-(2-(((1S,2R)-2-hydroxycyclopentyl)amino)-2-oxoacetyl)-2-methyl-5,6,7,8-tetrahydroindolizine-1-carboxamide], the EC50 in data set [1] is 0.5 to 1 µM. Also, in data set [2], the CC50 at 7 days was in the range of 5 to 30 µM.

Turning to `Cc1cc(NC(=O)c2c(C)c(C(=O)C(=O)Nc3cc(F)[nH]c(=O)c3)n(C)c2C)ccc1F` [Example 674, 5-(2-((6-fluoro-2-oxo-1,2-dihydropyridin-4-yl)amino)-2-oxoacetyl)-N-(4-fluoro-3-methylphenyl)-1,2,4-trimethyl-1H-pyrrole-3-carboxamide], the EC50 in data set [1] lay in the range of 0.05 to 0.499 µM. In addition, the CC50 at 7 days in data set [2] was 5 to 30 µM.

The values are drawn from patent US20190375708A1 (VenatoRx Pharmaceuticals, Inc., priority 2018, published 2019).
